The text below walks through data of ChEMBL document CHEMBL4699445, “Highly Potent Antiausterity Agents from Callistemon citrinus and Their Mechanism of Action against the PANC-1 Human Pancreatic Cancer Cell Line” (2020).

The test system of assay [1] is PANC-1. Nature of the assay: Anticancer activity against human PANC-1 cells assessed as reduction in cell viability in nutrient-deprived medium after 24 hrs by WST-8 assay. In kind it is functional. (In general: Tetrazolium dyes change colour on reduction, which living cells bring about.)
Assay [2] relates to PANC-1. Nature of the assay: Inhibition of PI3K/Akt/mTOR signaling in human PANC-1 cells assessed as decrease in pmTOR S2481 level at 1 to 10 uM by Western blot analysis. The settings on record: dose 1-10 µM, time 3-6 hrs, TDE = time-dependent effect. In kind it is cell-based. For orientation: In western blotting, separated proteins are transferred to a membrane and probed.
For assay [3], the system named is PANC-1. In words: Inhibition of PI3K/Akt/mTOR signaling in human PANC-1 cells assessed as decrease in pAkt at S473 level at 1 to 10 uM by Western blot analysis. The class given is cell-based. The settings on record: dose 1-10 µM, time 3-6 hrs, TDE = time-dependent effect.
The subject of assay [4] is PANC-1. In words: Inhibition of PI3K/Akt/mTOR signaling in human PANC-1 cells assessed as decrease in PI3K p110alpha level measured after 3 to 6 hrs by Western blot analysis. In kind it is cell-based. Conditions: dose microM 1-10, time hrs 3-6.
Assay [5] concerns PANC-1. Nature of the assay: Inhibition of PI3K/Akt/mTOR signaling in human PANC-1 cells assessed as decrease in mTOR level measured after 3 to 6 hrs by Western blot analysis. The class given is cell-based. The settings on record: dose 1-10 µM, time 3-6 hrs.
For assay [6], the system named is PANC-1. In words: Inhibition of colony formation in human PANC-1 cells in nutrient rich DMEM medium at 5 uM measured after 24 hrs by crystal violet staining based assay (reference value: 33%). The class given is functional.
Assay [7] concerns PANC-1. Nature of the assay: Inhibition of PI3K/Akt/mTOR signaling in human PANC-1 cells assessed as decrease in LC3-II level at 1 to 10 uM measured after 3 to 6 hrs by Western blot analysis. The class given is cell-based. The settings on record: dose 1-10 µM, time 3-6 hrs.
In assay [8] the test system is PANC-1. In words: Inhibition of cell migration in human PANC1 cells assessed as open wound area at 5 uM cultured in nutrient rich DMEM medium measured after 12 hrs by quantitative real-time imaging based wound healing assay (reference value: 57.5%). In kind it is functional. More on the design: scale not given: the % may be the effect or the level left.
Assay [9] concerns PANC-1. Nature of the assay: Inhibition of colony formation in human PANC-1 cells in nutrient rich DMEM medium at 2.5 uM measured after 24 hrs by crystal violet staining based assay (reference value: 33%). In kind it is functional.
In assay [10] the test system is PANC-1. In words: Inhibition of colony formation in human PANC-1 cells in nutrient rich DMEM medium at 10 uM measured after 24 hrs by crystal violet staining based assay (reference value: 33%). The class given is functional.
For assay [11], the system named is PANC-1. Nature of the assay: Inhibition of PI3K/Akt/mTOR signaling in human PANC-1 cells assessed as decrease in mTOR level at 1 to 10 uM by Western blot analysis. The class given is cell-based. The settings on record: dose 1-10 µM, time 3-6 hrs, TDE = time-dependent effect.
Assay [12] deals with PANC-1. In words: Inhibition of PI3K/Akt/mTOR signaling in human PANC-1 cells assessed as decrease in pAkt at S473 level measured after 3 to 6 hrs by Western blot analysis. In kind it is cell-based. The settings on record: dose 1-10 µM, time 3-6 hrs.
Assay [13] deals with PANC-1. In words: Inhibition of PI3K/Akt/mTOR signaling in human PANC-1 cells assessed as decrease in PI3K p110beta level measured after 3 to 6 hrs by Western blot analysis. In kind it is cell-based. The settings on record: dose 1-10 µM, time 3-6 hrs.
Assay [14] has as its system PANC-1. In words: Inhibition of PI3K/Akt/mTOR signaling in human PANC-1 cells assessed as decrease in Akt level at 1 to 10 uM by Western blot analysis. In kind it is cell-based. Conditions: dose 1-10 µM, time 3-6 hrs, TDE = time-dependent effect.
For assay [15], the system named is PANC-1. In words: Induction of cell morphological changes in human PANC-1 cells assessed as dead cells at 0.1 uM after 24 hrs in nutrient-deprived medium by ethidium bromide-acridine orange staining based fluorescence microscopic analysis. In kind it is functional.
In assay [16] the test system is PANC-1. In words: Inhibition of PI3K/Akt/mTOR signaling in human PANC-1 cells assessed as decrease in pmTOR S2481 level measured after 3 to 6 hrs by Western blot analysis. In kind it is cell-based. The settings on record: dose 1-10 µM, time 3-6 hrs.
The subject of assay [17] is PANC-1. In words: Inhibition of colony formation in human PANC-1 cells in nutrient rich DMEM medium measured after 24 hrs by crystal violet staining based assay. Conditions: dose microM 2.5-10, time 24.0 hrs. In kind it is functional, cell-based.
The test system of assay [18] is PANC-1. Nature of the assay: Inhibition of PI3K/Akt/mTOR signaling in human PANC-1 cells assessed as decrease in Akt level measured after 3 to 6 hrs by Western blot analysis. Conditions: dose 1-10 µM, time 3-6 hrs. The class given is cell-based.
Assay [19] has as its system PANC-1. Nature of the assay: Inhibition of PI3K/Akt/mTOR signaling in human PANC-1 cells assessed as decrease in PI3K p110beta level at 1 to 10 uM by Western blot analysis. The class given is cell-based. Conditions: dose 1-10 µM, time 3-6 hrs, TDE = time-dependent effect.
Assay [20] concerns PANC-1. In words: Inhibition of cell migration in human PANC1 cells assessed as open wound area at 5 uM cultured in nutrient rich DMEM medium measured after 24 hrs by quantitative real-time imaging based wound healing assay (reference value: 15%). In kind it is functional. More on the design: scale not given: the % may be the effect or the level left.
Assay [21] has as its system PANC-1. Nature of the assay: Inhibition of PI3K/Akt/mTOR signaling in human PANC-1 cells assessed as decrease in PI3K p110alpha level at 1 to 10 uM by Western blot analysis. Conditions: dose 1-10 µM, time 3-6 hrs, TDE = time-dependent effect. The class given is cell-based.

Structures are written as SMILES. Activity calls are given as the source filed them. The rule behind the calls is not given here.

Consider `CC(C)CC(=O)c1c(O)c2c(c3c1OC1(O)C(C(=O)C(C)(C)C(=O)C1(C)C)[C@@H]3C(C)C)OC1=C(C(=O)C(C)(C)C(=O)C1(C)C)[C@@H]2C(C)C` (some centres not stated), for which the PC50 in assay [1] turned out to be 0.6 µM.

Turning to `CC(C)[C@@H]1C[C@]2(CC[C@H]3C[C@@H]2C3(C)C)OC2=C1C(=O)C(C)(C)C(=O)C2(C)C`, the PC50 in assay [1] is 8 µM.

Turning to `CC1(C)C=C2C(=O)C(C)(C)C(=O)C(C)(C)C2(O)OO1` (configuration not stated) [ENDOPEROXIDE HORMONE G3], the PC50 in assay [1] was determined as 32.3 µM.

With `CC(C)=CCCC1=CCC2(C(=O)C(C)(C)C(=O)C(C)(C)C2=O)[C@@H](C(C)C)C1`, the PC50 in assay [1] is 0.02 µM.

For `Oc1cc(O)c2c(c1)O[C@H](c1ccc(O)c(O)c1)[C@@H](O)C2` [CIANIDANOL], the PC50 in [1] is over 100 µM.

Regarding `COc1cc([C@H]2c3cc(O)c(OC)cc3C[C@H](C)[C@@H]2C)ccc1O`, the PC50 in assay [1] worked out at 88.3 µM.

Take `CC(C)[C@@H]1C=C[C@@]2(C)OC3=C(C(=O)C(C)(C)C(=O)C3(C)C)[C@H](C(C)C)[C@H]2C1`: the PC50 in assay [1] came to 11.7 µM.

For `C=C1CC[C@H]2[C@@H](C(C)C)C3=C(O[C@]2(C)CC[C@@H]2[C@@H]1CC2(C)C)C(C)(C)C(=O)C(C)(C)C3=O`, in [1], the PC50 is 28.1 µM.

For `COc1ccc(-c2cc(=O)c3c(O)c(C)c(OC)c(C)c3o2)cc1`, the PC50 in assay [1] was found to be 1 µM.

As to `COc1ccc(-c2cc(=O)c3c(O)c(C)c(OC)cc3o2)cc1`, the PC50 in [1] is 6.1 µM.

On to `COc1cc(C[C@H]2C(=O)OC[C@@H]2Cc2ccc(OC)c(OC)c2)ccc1O` [ARCTIGENIN], for which the PC50 in assay [1] is 0.7 µM.

Consider `CC(C)[C@H]1C[C@]2(CC[C@]3(C(C)C)C[C@H]23)OC2=C1C(=O)C(C)(C)C(=O)C2(C)C`, for which the PC50 in assay [1] came to 10 µM.

With `CC(C)CC(=O)c1c(O)c([C@H](C2=C(O)C(C)(C)C(=O)C(C)(C)C2=O)C(C)C)c(O)c2c1O[C@]1(C)C=C[C@@H](C(C)C)C[C@H]21`, the inhibition entry in assay [2] was “Tde”; in assay [3] it was “Tde”; in assay [4], “Dose-dependent effect”; in [5], “Dose-dependent effect”; in assay [11], “Tde”; in [12], “Dose-dependent effect”. The inhibition entry in assay [13] is “Dose-dependent effect”; in assay [14], “Tde”; in assay [16] it was “Dose-dependent effect”; in [17], “Dose-dependent effect”; in assay [18], “Dose-dependent effect”; in [19], “Tde”. Besides, the inhibition result in assay [21] is “Tde”. The compound also had an inhibition at 5 µM in assay [6] of 63%. In addition, the inhibition entry in assay [7] is “Active”. For the same compound, the Activity is given as 95% in [8] and 92% in assay [20]. Also, testing at 2.5 µM in [9] gave an inhibition of 41%. In assay [10], this compound had an inhibition at 10 µM of 80%. Further, in [15], the outcome was Active. Moreover, the PC50 in assay [1] is 0.065 µM.

Regarding `CC(C)[C@@H]1C[C@]2(CC[C@]3(C(C)C)C[C@H]23)OC2=C1C(=O)C(C)(C)C(=O)C2(C)C`, the PC50 in [1] turned out to be 3.9 µM.

As to `CC(C)[C@@H]1C=C[C@@]2(C)OC3=C(C(=O)C(C)(C)C(=O)C3(C)C)[C@@H](C(C)C)[C@H]2C1`, in assay [1], the PC50 is 5 µM.

As for `CCC(C)[C@H](C1=C(O)C(C)(C)C(=O)C(C)(C)C1=O)c1c(O)c(C(=O)CC(C)C)c(O)c2c1O[C@]1(C)C=C[C@@H](C(C)C)C[C@H]21` (some centres not stated), the result in [15] was Active. In addition, the PC50 in assay [1] worked out at 0.01 µM.

What is called inhibition is the relative decrease from the control value, in per cent.
